Patent publication US20240270821A1, “GIP/GLP1/GCG TRI-RECEPTOR AGONISTS AND USES THEREOF” (priority 2023, published 2024)
Like-named read-outs stand apart in the source and are kept apart here. Starred links: 1 amine or outer side, 2 acyl side, 3 side chain; linkers in the order of their positions; H or OH if unused. Non-standard residues stand in square brackets, D forms with d. Residues, ends and D or L forms follow the SMILES beside them. Groups on a side chain read outwards from the residue. No end group written: not given here. *: point of attachment. C20 diacid = O=C(O)CCCCCCCCCCCCCCCCCCC(=O)*; C18 diacid = O=C(O)CCCCCCCCCCCCCCCCC(=O)*; αMePhe(2-F) = C[C@](N)(Cc1ccccc1F)C(=O)O; γGlu = O=C(O)[C@H](CCC(=O)[*:2])N[*:1]; αMe4Pal = C[C@](N)(Cc1ccncc1)C(=O)O; αMeY = C[C@](N)(Cc1ccc(O)cc1)C(=O)O; 4Pal = N[C@@H](Cc1ccncc1)C(=O)O; αMeL = CC(C)C[C@](C)(N)C(=O)O; αMeS = C[C@](N)(CO)C(=O)O; Orn = NCCC[C@H](N)C(=O)O; AEEA = NCCOCCOCC(=O)O; Aib = CC(C)(N)C(=O)O

Legend:
Format in all cases: cell-based
hGIPR [1] = target: T1, hGIPR (Homo sapiens, UniProt P48546); test: Functional cAMP activity in the presence of 1% HSA; conditions: read-out: cAMP Rel EC50, hGIPR
T1 sequence (P48546 22-466): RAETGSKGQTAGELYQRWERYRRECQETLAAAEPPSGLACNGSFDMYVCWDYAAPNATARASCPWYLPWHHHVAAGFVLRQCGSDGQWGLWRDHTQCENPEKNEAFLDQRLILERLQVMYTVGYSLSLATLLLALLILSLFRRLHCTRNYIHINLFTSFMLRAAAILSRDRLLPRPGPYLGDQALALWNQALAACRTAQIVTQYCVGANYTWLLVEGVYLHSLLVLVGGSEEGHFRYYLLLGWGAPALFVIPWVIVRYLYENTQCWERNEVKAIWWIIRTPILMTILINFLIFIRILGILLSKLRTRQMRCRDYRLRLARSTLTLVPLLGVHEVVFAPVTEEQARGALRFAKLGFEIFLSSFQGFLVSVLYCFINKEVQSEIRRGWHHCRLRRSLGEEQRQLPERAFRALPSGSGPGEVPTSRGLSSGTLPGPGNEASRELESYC

hGLP-1R [2] = target: T2, hGLP-1R (Homo sapiens, UniProt P43220); test: Functional cAMP activity in the presence of 1% HSA; conditions: read-out: cAMP Rel EC50, hGLP-1R
T2 sequence (P43220 24-463): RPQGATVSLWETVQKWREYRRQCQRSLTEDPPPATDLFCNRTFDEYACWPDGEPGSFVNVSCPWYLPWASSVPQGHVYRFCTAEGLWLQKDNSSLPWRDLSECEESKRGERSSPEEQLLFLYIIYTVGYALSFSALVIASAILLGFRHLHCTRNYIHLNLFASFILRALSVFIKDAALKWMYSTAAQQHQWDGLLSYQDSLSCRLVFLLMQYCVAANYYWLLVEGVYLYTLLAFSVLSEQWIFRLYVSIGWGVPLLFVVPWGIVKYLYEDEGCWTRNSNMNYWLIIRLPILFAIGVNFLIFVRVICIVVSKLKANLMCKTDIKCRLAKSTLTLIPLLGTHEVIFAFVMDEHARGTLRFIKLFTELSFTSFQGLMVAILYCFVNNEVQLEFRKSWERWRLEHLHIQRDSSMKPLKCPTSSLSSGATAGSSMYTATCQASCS

human GcgR = human GcgR (Homo sapiens, UniProt P47871); test: Functional cAMP activity in the presence of 1% HSA; conditions: read-out: cAMP Rel EC50, hGcgR
human GcgR, sequence (P47871 26-477): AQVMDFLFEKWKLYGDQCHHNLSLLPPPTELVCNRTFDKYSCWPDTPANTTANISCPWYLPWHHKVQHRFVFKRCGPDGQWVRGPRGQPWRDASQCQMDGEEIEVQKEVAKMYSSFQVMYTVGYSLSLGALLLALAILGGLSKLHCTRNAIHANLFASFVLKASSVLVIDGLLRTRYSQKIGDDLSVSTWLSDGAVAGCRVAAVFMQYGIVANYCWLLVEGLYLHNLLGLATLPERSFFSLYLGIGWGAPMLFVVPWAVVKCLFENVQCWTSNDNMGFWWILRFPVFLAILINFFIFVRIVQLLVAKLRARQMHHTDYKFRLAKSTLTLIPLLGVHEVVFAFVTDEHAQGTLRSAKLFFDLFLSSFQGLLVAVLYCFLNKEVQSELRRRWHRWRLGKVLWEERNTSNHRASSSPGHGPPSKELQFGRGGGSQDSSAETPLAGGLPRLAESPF

hGIPR [3] = target: T1, hGIPR; test: Functional cAMP activation in the presence of 0.1% casein (no HSA); conditions: read-out: Relative cAMP EC50, hGIPR;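 for Relative cAMP EC50, hGIPR: intracellular cAMP rise after 30 min at 37 °C read by HTRF against a standard curve, scaled between buffer alone (0%) and top control ligand concentration (100%), four-parameter fit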;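 for Relative cAMP EC50, hGLP-1R: intracellular cAMP rise after 30 min at 37 °C read by HTRF, normalized between buffer only (0%) and maximal control ligand (100%), four-parameter variable-slope fit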;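 for Relative cAMP EC50, hGcgR: intracellular cAMP rise after 30 min at 37 °C, read by HTRF against a cAMP standard curve, scaled from buffer only (0%) to maximal control ligand response (100%)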
hGLP-1R [4] = target: T2, hGLP-1R; test: as above; conditions: read-out: Relative cAMP EC50, hGLP-1R
hGcgR = hGcgR (Homo sapiens, UniProt P47871); test: as above; conditions: read-out: Relative cAMP EC50, hGcgR;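 note: intracellular cAMP rise after 30 min at 37 °C, read by HTRF against a cAMP standard curve, scaled from buffer only (0%) to maximal control ligand response (100%)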
hGcgR, sequence (P47871 26-477): as above

[5] = in the presence of 0.1% casein (no HSA), geometric mean
[6] = HEK-293 clonal cell line, 1% HSA, geometric mean of relative EC50
[7] = in the presence of 0.1% casein (no HSA), geometric mean of relative EC50

| Compound | EC50 (hGIPR [1]) [nM] | EC50 (hGLP-1R [2]) [nM] | EC50 (human GcgR) [nM] | EC50 (hGIPR [3]; [5]) [nM] | EC50 (hGLP-1R [4]; [5]) [nM] | EC50 (hGcgR; [5]) [nM] | EC50 (hGIPR [3]) [nM] | EC50 (hGLP-1R [4]) [nM] | EC50 (hGcgR) [nM] | EC50 (hGIPR [1]; [6]) [nM] | EC50 (hGLP-1R [2]; [6]) [nM] | EC50 (human GcgR; [6]) [nM] | EC50 (hGIPR [3]; [7]) [nM] | EC50 (hGLP-1R [4]; [7]) [nM] | EC50 (hGcgR; [7]) [nM] |
| --- | --- | --- | --- | --- | --- | --- | --- | --- | --- | --- | --- | --- | --- | --- | --- |
| CC[C@H](C)[C@H](NC(=O)[C@H](Cc1ccccc1)NC(=O)[C@H](C)NC(=O)C(C)(C)NC(=O)[C@H](CCC(N)=O)NC(=O)[C@H](C)NC(=O)[C@H](CCCCNC(=O)COCCOCCNC(=O)CC[C@H](NC(=O)CCCCCCCCCCCCCCCCC(=O)O)C(=O)O)NC(=O)[C@H](CCCCN)NC(=O)[C@H](CC(=O)O)NC(=O)[C@H](CC(C)C)NC(=O)[C@](C)(CC(C)C)NC(=O)[C@H](CCCCN)NC(=O)[C@H](CO)NC(=O)[C@H](Cc1ccncc1)NC(=O)[C@H](CC(=O)O)NC(=O)[C@H](CO)NC(=O)[C@@H](NC(=O)[C@H](Cc1ccccc1)NC(=O)[C@@H](NC(=O)CNC(=O)[C@H](CCC(N)=O)NC(=O)C(C)(C)NC(=O)[C@@H](N)Cc1ccc(O)cc1)[C@@H](C)O)[C@@H](C)O)C(=O)N[C@@H](CCC(=O)O)C(=O)N[C@@H](Cc1ccc(O)cc1)C(=O)N[C@@H](CC(C)C)C(=O)N[C@H](C(=O)N[C@@H](CCC(=O)O)C(=O)N[C@H](C)C(=O)NCC(=O)N[C@@H](CCC(=O)O)C(=O)N[C@@H](CO)C(=O)N[C@@H](CO)C(=O)NCC(=O)N[C@@H](C)C(=O)N1CCC[C@H]1C(=O)N1CCC[C@H]1C(=O)N1CCC[C@H]1C(=O)N[C@@H](CO)C(=O)NCC(=O)N[C@@H](CO)C(N)=O)[C@@H](C)CC [Example 283] | 47.2 | 233 | 1470 | 0.225 | 1.16 | 9.73 | – | – | – | – | – | – | – | – | – |
| H-Y[Aib]QGT[αMePhe(2-F)]TSD[4Pal]SI[αMeL]LD[Orn]K([AEEA-γGlu-C18 diacid])AQ[αMe4Pal]EFI[dE][αMeY]LQEGGPSSGEPPPSGS-NH2 [Example 648] | 1.4 | 86.5 | 1170 | – | – | – | 0.0392 | 1.76 | 20.3 | – | – | – | – | – | – |
| Y[Aib]QGTFTSD[4Pal][αMeS]Q[αMeL]LD[Orn]K([dE-γGlu-C18 diacid])AQ[αMe4Pal]QFIQ[αMeY]LIEGGPSSGEPPPSGGGE-NH2 [Example 1188] | 7.02 | 77.1 | 130 | 0.0914 | 1.01 | 1.16 | – | – | – | – | – | – | – | – | – |
| H-Y[Aib]QGTFTSDFSK[αMeL]LDKK([AEEA-γGlu-C20 diacid])AQ[Aib]AFIEWLIEGGPSSGAPPPSEG-NH2 [Example 40] | 76.7 | 138 | 2750 | 0.139 | 0.693 | 12.3 | – | – | – | – | – | – | – | – | – |
| H-Y[Aib]QGTFTSD[4Pal]SQ[αMeL]LDKK([AEEA-γGlu-C18 diacid])AQ[αMe4Pal]AFIEYLIE[Aib]GPSSGAPPPSGSGE-NH2 [Example 888] | 30.8 | 238 | 567 | 0.168 | 5.02 | 30.1 | – | – | – | – | – | – | – | – | – |
| Y[Aib]QGT[αMePhe(2-F)]TSD[4Pal][αMeS]ILLD[Orn]K([γGlu-γGlu-C18 diacid])AQ[Aib][Orn]FI[dE]YLIEGGPSSGEPPPSETE-NH2 [Example 555] | – | – | – | – | – | – | – | – | – | 5.31 | 42 | 274 | 0.0601 | 0.445 | 3.56 |
| CC[C@H](C)[C@H](NC(=O)[C@H](Cc1ccccc1)NC(=O)[C@H](C)NC(=O)C(C)(C)NC(=O)[C@H](CCC(N)=O)NC(=O)[C@H](C)NC(=O)[C@H](CCCCNC(=O)COCCOCCNC(=O)CC[C@H](NC(=O)CCCCCCCCCCCCCCCCC(=O)O)C(=O)O)NC(=O)[C@H](CCCN)NC(=O)[C@H](CC(=O)O)NC(=O)[C@H](CC(C)C)NC(=O)[C@](C)(CC(C)C)NC(=O)[C@@H](NC(=O)[C@](C)(CO)NC(=O)[C@H](Cc1ccncc1)NC(=O)[C@H](CC(=O)O)NC(=O)[C@H](CO)NC(=O)[C@@H](NC(=O)[C@](C)(Cc1ccccc1F)NC(=O)[C@@H](NC(=O)CNC(=O)[C@H](CCC(N)=O)NC(=O)C(C)(C)NC(=O)[C@@H](N)Cc1c[nH]cn1)[C@@H](C)O)[C@@H](C)O)[C@@H](C)CC)C(=O)N[C@H](CCC(=O)O)C(=O)N[C@@H](Cc1ccc(O)cc1)C(=O)N[C@@H](CC(C)C)C(=O)N[C@@H](CC(C)C)C(=O)N[C@@H](CCC(=O)O)C(=O)NCC(=O)NCC(=O)N1CCC[C@H]1C(=O)N[C@@H](CO)C(=O)N[C@@H](CO)C(=O)NCC(=O)N[C@@H](CCC(=O)O)C(=O)N1CCC[C@H]1C(=O)N[C@@H](CCC(=O)O)C(=O)N1CCC[C@H]1C(=O)N[C@@H](CCC(=O)O)C(N)=O [Example 479] (H-H[Aib]QGT[αMePhe(2-F)]TSD[4Pal][αMeS]I[αMeL]LD[Orn]K([AEEA-γGlu-C18 diacid])AQ[Aib]AFI[dE]YLLEGGPSSGEPEPE-NH2) | 7.11 | 23.5 | 432 | – | – | – | 0.0905 | 0.314 | 5.98 | – | – | – | – | – | – |
| H-Y[Aib]QGTFTSDFSK[αMeL]LDKK([AEEA-γGlu-C20 diacid])AQ[Aib]AFIEYLLAGGPSSGEPPPSGG-NH2 [Example 6] | 46.6 | 446 | 1380 | 0.232 | 1.95 | 6.89 | – | – | – | – | – | – | – | – | – |
